Measured values published in US20200375992A1, “PHARMACEUTICAL COMPOSITION AND USE FOR APPLYING PALBOCICLIB IN DISEASE TREATMENT OF PATIENT AND INHIBITION OF PI3K ACTIVITY” (Chang Gung University, priority 2019, published 2020).

Experiments:
PI3K p110α/p85α = PI3K p110α/p85α (Homo sapiens, UniProt P42336); test: PI3K p110α/p85α enzymatic activity, Kinase-Glo Luminescent Kinase Assay; format: biochemical; conditions: 3 μM, 10 μM and 30 μM of Palbociclib; p<0.001 compared with control; activity decreased with increasing concentration; n=6; FIG. 1A
Protocol: (§1) Palbociclib was dissolved in ddH2O (as solvent) and then added to the reagents which contain PI3K p110α/p85α (50 ng/ml), PI3K p110β/p85α (150 ng/ml), or PI3K p110δ/p85α (50 ng/ml). The final concentration of Palbociclib was 0.1 to 30 μM. Then, the mixtures were incubated for 10 minutes at 25° C. The reagent which was added by ddH2O (solvent, marked as “−” in FIGS. 1A-1C) instead of Palbociclib was as a control in this experiment. 2.5X ATP/substrate was added to each reagent and then further incubated for 60 minutes. Finally, enzymatic activities of PI3K were analyzed according to the user manual of Kinase-Glo® Luminescent Kinase Assays (Promega Corporation, catalog number V1690) and luminometer (TECAN infinite 200 Pro) by using Kinase-Glo® Luminescent Kinase Assays.

PI3K p110β/p85α = PI3K p110β/p85α (Homo sapiens, UniProt P42338); test: PI3K p110β/p85α enzymatic activity, Kinase-Glo Luminescent Kinase Assay; format: biochemical; conditions: 3 μM, 10 μM and 30 μM of Palbociclib; p<0.001 compared with control; activity decreased with increasing concentration; n=6; FIG. 1B
Protocol: as §1

PI3K p110δ/p85α = PI3K p110δ/p85α (Homo sapiens, UniProt O00329); test: PI3K p110δ/p85α enzymatic activity, Kinase-Glo Luminescent Kinase Assay; format: biochemical; conditions: 0.1 μM, 1 μM and 10 μM of Palbociclib; p<0.001 compared with control; activity decreased with increasing concentration; n=6; FIG. 1C
Protocol: as §1

[1] = tested on: fMLF-stimulated neutrophils; test: Superoxide anion generation in fMLF-stimulated neutrophils (ferricytochrome c reduction, OD550); format: cell-based; conditions: 1 μM, 3 μM and 10 μM of Palbociclib; human neutrophils stimulated with fMLF (0.1 μM)/cytochalasin B; compared with control; decreased with increasing concentration; FIG. 2A
Protocol: (§2) The informed consent to participate which was approved by the Institutional Review Board are signed by the donors. 50 mL of blood was collected from the median cubital vein of each donor by sterile vacutainer, and was used to isolate neutrophils for the following experiments.
(§3) Human neutrophils (isolated from whole blood of donors) were incubated with ddH2O (as solvent, marked as “−” in the groups at X-axis in FIGS. 2A and 2B) or Palbociclib (0.3-10 μM, dissolved in ddH2O) for 5 minutes, and then stimulated the neutrophils with or without fMLF (0.1 μM)/cytochalasin B (CB, 1 μg/ml) for another 10 minutes to activate the neutrophils. The absorbances (OD550 and OD450) of the reaction mixture were then measured by a spectrophotometer at OD 550 nm and OD 450 nm. The reading of OD550 is used to detect the reduction of ferricytochrome c, which indicates the amount of superoxide anion. The reading of OD450 is used to detect the status of Methoxysuccinyl-Ala-Ala-Val-p-nitroanilide (which is a specific substrate of elastase) affected by elastase, which indicates the release amount and activity of elastase. Cytochalasin B was sold by Sigma-Aldrich, catalog number #2506; fMLF was sold by Sigma-Aldrich, catalog number #454454; model number of the spectrophotometer is HITACHI U-3010. […]

[2] = tested on: fMLF-stimulated neutrophils; test: Elastase release in fMLF-stimulated neutrophils (Methoxysuccinyl-Ala-Ala-Val-p-nitroanilide, OD450); format: cell-based; conditions: 3 μM and 10 μM of Palbociclib; human neutrophils stimulated with fMLF (0.1 μM)/cytochalasin B; compared with control; decreased with increasing concentration; FIG. 2B
Protocol: as §2, §3

IMQ-treated mice = test: Psoriasis-like symptoms in IMQ-treated mice; format: in vivo, Male BALB/c mice
Protocol: 500 μg of Palbociclib was dissolved in 100 μl of 60% ethanol to make a pharmaceutical composition. The Palbociclib concentration of the pharmaceutical composition was 500 μg/100 μl and used in the subsequent animal experimental example 4. Male BALB/c mice (7-9 weeks of age, the body weight of each mouse is about 20 g) were divided into different groups, and each group has 6 mice. Each mouse was epilation on the back and then treated with 100 μl of solvent (60% ethanol) or 100 μl of the pharmaceutical composition prepared in example 3 (the concentration of Palbociclib is 25 mg/kg of body weight) by applying on the nude back skin before topical treatment of imiquimod (IMQ, sold by 3M Health Care Limited). And then applying with or without IMQ on the nude back skin of mice to cause psoriasis-like symptom. Each treatment was given once per day for 5 consecutive days. The mice which applying solvent and IMQ is played as the control. The mice which merely applying solvent or Palbociclib without IMQ are played as the blank 1 and blank 2.

Sequence of PI3K p110α/p85α (P42336 whole entry): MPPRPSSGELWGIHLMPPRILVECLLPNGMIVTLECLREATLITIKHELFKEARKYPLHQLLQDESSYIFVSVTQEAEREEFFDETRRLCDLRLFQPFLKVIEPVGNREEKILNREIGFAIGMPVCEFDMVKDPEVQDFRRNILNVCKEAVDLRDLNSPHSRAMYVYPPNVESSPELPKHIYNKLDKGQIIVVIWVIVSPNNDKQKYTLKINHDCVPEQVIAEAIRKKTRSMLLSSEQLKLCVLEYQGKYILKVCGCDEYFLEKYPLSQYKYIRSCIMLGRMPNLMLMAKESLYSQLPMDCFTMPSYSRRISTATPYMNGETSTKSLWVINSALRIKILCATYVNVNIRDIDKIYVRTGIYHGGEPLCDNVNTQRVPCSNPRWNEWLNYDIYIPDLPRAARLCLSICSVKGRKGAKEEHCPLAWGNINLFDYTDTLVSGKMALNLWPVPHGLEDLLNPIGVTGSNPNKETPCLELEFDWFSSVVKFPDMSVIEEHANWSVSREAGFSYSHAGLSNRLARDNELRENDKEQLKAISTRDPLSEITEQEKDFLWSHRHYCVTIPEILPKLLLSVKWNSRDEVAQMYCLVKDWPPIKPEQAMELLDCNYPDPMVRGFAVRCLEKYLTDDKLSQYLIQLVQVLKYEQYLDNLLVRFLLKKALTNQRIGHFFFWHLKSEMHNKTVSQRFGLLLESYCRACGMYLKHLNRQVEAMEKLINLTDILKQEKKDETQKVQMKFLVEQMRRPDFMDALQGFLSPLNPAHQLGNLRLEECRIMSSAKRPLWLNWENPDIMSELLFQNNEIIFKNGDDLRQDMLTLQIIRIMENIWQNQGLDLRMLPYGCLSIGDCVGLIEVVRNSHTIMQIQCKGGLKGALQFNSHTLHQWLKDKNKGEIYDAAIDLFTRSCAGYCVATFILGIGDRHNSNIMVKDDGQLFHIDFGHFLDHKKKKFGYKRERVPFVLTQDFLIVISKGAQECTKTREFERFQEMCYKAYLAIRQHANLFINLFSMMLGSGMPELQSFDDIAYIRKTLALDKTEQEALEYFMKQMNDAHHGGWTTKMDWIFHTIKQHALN
Sequence of PI3K p110α/p85α (P27986 whole entry partner): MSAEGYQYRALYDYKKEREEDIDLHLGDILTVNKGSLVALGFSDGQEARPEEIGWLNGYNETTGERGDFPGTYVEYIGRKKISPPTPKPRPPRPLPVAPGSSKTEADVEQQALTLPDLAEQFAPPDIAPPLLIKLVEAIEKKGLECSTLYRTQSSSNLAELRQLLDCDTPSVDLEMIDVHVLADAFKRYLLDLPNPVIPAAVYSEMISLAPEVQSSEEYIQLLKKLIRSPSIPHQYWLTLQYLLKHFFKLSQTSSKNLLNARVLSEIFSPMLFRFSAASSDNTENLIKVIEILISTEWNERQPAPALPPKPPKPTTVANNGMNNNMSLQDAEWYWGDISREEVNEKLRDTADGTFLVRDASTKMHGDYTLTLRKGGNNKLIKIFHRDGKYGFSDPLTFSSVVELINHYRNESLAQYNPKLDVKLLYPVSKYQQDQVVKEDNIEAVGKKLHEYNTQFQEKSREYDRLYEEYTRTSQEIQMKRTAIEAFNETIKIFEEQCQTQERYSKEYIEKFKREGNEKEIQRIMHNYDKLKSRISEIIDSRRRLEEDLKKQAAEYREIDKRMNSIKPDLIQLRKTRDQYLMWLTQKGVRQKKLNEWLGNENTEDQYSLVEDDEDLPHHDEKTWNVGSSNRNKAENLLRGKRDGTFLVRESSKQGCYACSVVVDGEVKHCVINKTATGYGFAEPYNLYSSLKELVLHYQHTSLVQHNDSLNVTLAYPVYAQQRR
Sequence of PI3K p110β/p85α (P42338 whole entry): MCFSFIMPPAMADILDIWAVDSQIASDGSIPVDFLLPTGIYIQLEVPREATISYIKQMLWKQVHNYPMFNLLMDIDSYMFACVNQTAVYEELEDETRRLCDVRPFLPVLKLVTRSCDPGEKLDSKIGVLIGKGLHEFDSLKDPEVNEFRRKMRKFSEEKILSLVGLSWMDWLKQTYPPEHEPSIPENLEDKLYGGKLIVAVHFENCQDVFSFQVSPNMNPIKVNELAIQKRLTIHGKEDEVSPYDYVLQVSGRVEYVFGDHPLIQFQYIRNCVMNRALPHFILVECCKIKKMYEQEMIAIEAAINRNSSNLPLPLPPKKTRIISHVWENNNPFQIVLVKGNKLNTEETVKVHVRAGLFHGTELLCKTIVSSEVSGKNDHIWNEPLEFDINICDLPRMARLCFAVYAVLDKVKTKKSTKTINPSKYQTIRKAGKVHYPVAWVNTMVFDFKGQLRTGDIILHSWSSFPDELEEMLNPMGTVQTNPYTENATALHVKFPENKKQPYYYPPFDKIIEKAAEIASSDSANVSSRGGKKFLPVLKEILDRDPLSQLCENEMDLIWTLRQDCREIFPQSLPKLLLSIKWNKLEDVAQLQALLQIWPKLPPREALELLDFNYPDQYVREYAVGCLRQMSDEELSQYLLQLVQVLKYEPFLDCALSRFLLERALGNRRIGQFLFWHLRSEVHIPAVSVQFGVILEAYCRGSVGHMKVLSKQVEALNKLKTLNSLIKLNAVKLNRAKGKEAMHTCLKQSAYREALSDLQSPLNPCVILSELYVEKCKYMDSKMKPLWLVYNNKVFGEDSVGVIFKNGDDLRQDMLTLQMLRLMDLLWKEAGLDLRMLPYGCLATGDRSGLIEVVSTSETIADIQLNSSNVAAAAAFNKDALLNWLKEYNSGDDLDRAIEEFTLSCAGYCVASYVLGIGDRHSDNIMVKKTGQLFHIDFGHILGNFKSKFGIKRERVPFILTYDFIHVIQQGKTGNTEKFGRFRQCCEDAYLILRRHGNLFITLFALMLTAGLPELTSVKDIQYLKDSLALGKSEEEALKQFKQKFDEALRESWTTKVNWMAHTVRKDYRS
Sequence of PI3K p110β/p85α (P27986 whole entry partner): as the sequence (P27986 whole entry partner) above
Sequence of PI3K p110δ/p85α (O00329 whole entry): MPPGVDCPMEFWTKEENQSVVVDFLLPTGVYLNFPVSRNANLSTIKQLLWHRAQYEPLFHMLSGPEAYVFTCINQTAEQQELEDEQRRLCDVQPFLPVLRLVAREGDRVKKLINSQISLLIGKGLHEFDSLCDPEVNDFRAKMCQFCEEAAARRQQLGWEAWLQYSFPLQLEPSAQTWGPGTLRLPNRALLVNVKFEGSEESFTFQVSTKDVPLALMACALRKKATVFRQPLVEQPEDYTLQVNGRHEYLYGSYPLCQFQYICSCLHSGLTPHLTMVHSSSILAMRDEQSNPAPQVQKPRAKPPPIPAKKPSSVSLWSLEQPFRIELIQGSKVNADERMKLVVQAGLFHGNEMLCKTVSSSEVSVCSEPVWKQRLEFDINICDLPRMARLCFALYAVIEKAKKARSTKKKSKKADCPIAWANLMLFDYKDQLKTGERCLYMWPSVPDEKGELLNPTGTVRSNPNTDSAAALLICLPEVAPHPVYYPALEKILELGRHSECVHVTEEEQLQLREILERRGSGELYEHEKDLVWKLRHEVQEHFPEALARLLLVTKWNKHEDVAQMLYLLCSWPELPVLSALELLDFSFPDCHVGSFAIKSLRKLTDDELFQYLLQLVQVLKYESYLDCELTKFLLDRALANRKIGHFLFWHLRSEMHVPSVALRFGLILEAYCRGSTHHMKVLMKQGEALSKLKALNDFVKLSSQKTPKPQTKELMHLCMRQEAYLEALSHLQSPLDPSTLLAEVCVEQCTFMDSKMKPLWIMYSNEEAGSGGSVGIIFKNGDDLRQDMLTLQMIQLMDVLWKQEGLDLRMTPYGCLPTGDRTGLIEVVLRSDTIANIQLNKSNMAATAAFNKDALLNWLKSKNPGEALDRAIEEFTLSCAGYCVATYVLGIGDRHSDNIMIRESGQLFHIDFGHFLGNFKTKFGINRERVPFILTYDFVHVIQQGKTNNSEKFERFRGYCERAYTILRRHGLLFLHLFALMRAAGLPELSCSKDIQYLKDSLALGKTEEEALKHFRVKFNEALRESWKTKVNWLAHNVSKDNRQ
Sequence of PI3K p110δ/p85α (P27986 whole entry partner): as the sequence (P27986 whole entry partner) above

PI3K p110α/p85α activity (PI3K p110α/p85α): significantly inhibit
PI3K p110β/p85α activity (PI3K p110β/p85α): significantly inhibit
PI3K p110δ/p85α activity (PI3K p110δ/p85α): significantly inhibit
Compound: CC(=O)c1c(C)c2cnc(Nc3ccc(N4CCNCC4)cn3)nc2n(C2CCCC2)c1=O [Palbociclib, 6-acetyl-8-cyclopentyl-5-methyl-2-((5-(piperazin-1-yl)pyridin-2-yl)amino)pyrido [2,3-d]pyrimidin-7(8H)-one]
generation of superoxide anion [1]: significantly restrict
release of elastase [2]: significantly restrict
psoriasis-like symptoms (enlarged skin photos by handheld digital microscope, FIG. 3B) (IMQ-treated mice; Palbociclib 25 mg/kg topical on back skin and IMQ, once per day, after the treatment in 5th day, control shows symptoms from 3rd day): not observed
psoriasis-like symptoms (skin photos, FIG. 3A) (IMQ-treated mice; Palbociclib 25 mg/kg topical on back skin then IMQ, once per day for 5 days, compared with control (solvent and IMQ), 5th day): significantly improved
